Reference: article PMC6199279, “Design of Peptoid-peptide Macrocycles to Inhibit the β-catenin TCF Interaction in Prostate Cancer” (Nature Communications, 2018)
Numbered stars: 1 amine (or outer) side, 2 acyl side, 3 side chain; on linkers, the order of the positions; unused ones are H or OH. Square brackets hold non-standard residues; d marks the D form. Peptide text beside a SMILES is read from it. N(2-(2-PhOPh)Et)Gly = O=C(O)CNCCc1ccccc1Oc1ccccc1; Gly(N-3,5-(OMe)2-Ph) = COc1cc(NCC(=O)O)cc(OC)c1; X1 = COc1ccc([C@H](C)N(CC(=O)[*:2])[*:1])cc1; N((CH2)3OiPr)Gly = CC(C)OCCCNCC(=O)O

What was measured:
Assay type in all cases: cell-based
[1] = test system: TOP-Flash Wnt luciferase reporter; assay: TOP-Flash Wnt luciferase reporter assay in LNCaP-abl cells
Description: (§1) Using a TOP-Flash Wnt luciferase reporter, we tested the 12 oligomers identified from in silico modeling for inhibitory activity (Fig. 2b). […] We also employed a 3 × -Androgen Response Element (ARE) luciferase reporter to measure the effect on AR activity. […] As additional controls, we obtained previously developed, commercially available Wnt inhibitors and tested them in the Wnt luciferase assay (Supplementary Fig. 5).
(§2) We next characterized the dose response curves for compound 13 in the Wnt and AR luciferase reporters. The linear version of 13 (linear 13: NH2-|N-mpp, N-dmp, N-ipp, N-Smpe, N-Smpe, D-Ala|-OH) was used as a control compound. […] To test direct binding, we pre-formed dynamic light scattering (DLS) with β-catenin in the presence of vehicle, compound 13, and α-cyclodextrin. […] HEK293 cells were transiently transfected with a plasmid expressing full length, myc-tagged TCF4. After 48 h treatment with either vehicle (DMSO) or 10 µM 13, cells were lysed and myc-TCF4 protein was immunoprecipitated.
LNCaP-abl and LNCaP-95 cells were cultured in indicator free RPMI 1640 media (Life) supplemented with 10% charcoal stripped FBS, 1% pennicillin/streptomycin, and 1% L-Glutamine. HEK-293 Cells were cultured in DMEM media (Life) supplemented with 10%FBS and 1% pennicillin/streptomycin. A549 and U2OS cells were cultured in RPMI 1640 media (Life) and McCoy’s 5 A modified media (Life), respectively, both supplemented with 10%FBS and 1% pennicillin/streptomycin. LNCaP-abl, and LNCaP-95 cell lines were generous gifts from Z. Culig (Innsbruck Medical University, Austria) and J. Isaacs (Johns Hopkins University, Baltimore, MD), respectively. Cell lines were authenticated by STR profiling (Genetica Cell Line Testing; Burlington, NC). A549 and U2OS were purchased from ATCC (product numbers CCL-185 and HTB-96). Cell lines were routinely screened for mycoplasma. Luciferase assays were conducted using stably transfected TOP-flash and 3xARE LNCaP-abl cell lines. For the Wnt pathway, TOP-Flash LNCaP-abl cells were treated with 1 nM siAPC (a 1:1:1 mix of Ambion Silencer Silect siAPC RNA, ID#s s1433, s1434, s1435) for 24 h and seeded into 384-well plates at 5000 cells/well, followed by 24 h of treatment with compound. For the AR-pathway, 3xARE LNCaP-abl cells were seeded into 384-well plates at 5000 cells per well, treated for 48 h with compound, with the addition of R1881 for the final 8 h. Both were measured using the ONE-Glo detection kit (Promega) and data is standardized to CellTiter-Fluor (Promega) viability readings to account for potential variations in well to well cell number. Control Wnt inhibitors were purchased from Sigma with the exception of PRI-724 which was purchased from Selleckchem. Co-immunoprecipitation was carried out using HEK293 cells transfected with either myc-TCF (addgene #32738) or myc-TCF dominant negative (addgene #32739) followed by 48 h of treatment with compound. Cells were lysed using Triton lysis buffer and 1 mg total protein was incubated overnight at 4 C with 40 µl anti-cMyc magnetic beads (Thermo). Total protein concentration in cell lysates were determined using Pierce Rapid Gold BCA Protein Assay Kit (Thermo). The beads were washed 3× with lysis buffer then boiled in 2X sample loading dye. SDS-PAGE and western blotting were performed using anti-Myc (CST 2276) and anti-β-catenin (CST 8480). Both antibodies were diluted in blocking buffer 1:1000 and incubated overnight at 4 C with the membrane. […]

[2] = test system: AR luciferase reporter (3xARE); assay: 3x-Androgen Response Element (ARE) luciferase reporter assay in LNCaP-abl cells
Description: as §1, §2
(§3) LNCaP-abl and LNCaP-95 cells were cultured in indicator free RPMI 1640 media (Life) supplemented with 10% charcoal stripped FBS, 1% pennicillin/streptomycin, and 1% L-Glutamine. HEK-293 Cells were cultured in DMEM media (Life) supplemented with 10%FBS and 1% pennicillin/streptomycin. A549 and U2OS cells were cultured in RPMI 1640 media (Life) and McCoy’s 5 A modified media (Life), respectively, both supplemented with 10%FBS and 1% pennicillin/streptomycin. LNCaP-abl, and LNCaP-95 cell lines were generous gifts from Z. Culig (Innsbruck Medical University, Austria) and J. Isaacs (Johns Hopkins University, Baltimore, MD), respectively. Cell lines were authenticated by STR profiling (Genetica Cell Line Testing; Burlington, NC). […] Both were measured using the ONE-Glo detection kit (Promega) and data is standardized to CellTiter-Fluor (Promega) viability readings to account for potential variations in well to well cell number. […] Total protein concentration in cell lysates were determined using Pierce Rapid Gold BCA Protein Assay Kit (Thermo). […]

[3] = target: T1, β-catenin:TCF4 protein interaction (Homo sapiens, UniProt P35222); assay: Co-immunoprecipitation of myc-TCF4 and endogenous β-catenin in HEK293 cells; details: HEK293 cells with myc-TCF4, 10 µM, 48 h, vs vehicle
T1 construct: host or cells: HEK293
T1 sequence (P35222 2-781 limits assumed): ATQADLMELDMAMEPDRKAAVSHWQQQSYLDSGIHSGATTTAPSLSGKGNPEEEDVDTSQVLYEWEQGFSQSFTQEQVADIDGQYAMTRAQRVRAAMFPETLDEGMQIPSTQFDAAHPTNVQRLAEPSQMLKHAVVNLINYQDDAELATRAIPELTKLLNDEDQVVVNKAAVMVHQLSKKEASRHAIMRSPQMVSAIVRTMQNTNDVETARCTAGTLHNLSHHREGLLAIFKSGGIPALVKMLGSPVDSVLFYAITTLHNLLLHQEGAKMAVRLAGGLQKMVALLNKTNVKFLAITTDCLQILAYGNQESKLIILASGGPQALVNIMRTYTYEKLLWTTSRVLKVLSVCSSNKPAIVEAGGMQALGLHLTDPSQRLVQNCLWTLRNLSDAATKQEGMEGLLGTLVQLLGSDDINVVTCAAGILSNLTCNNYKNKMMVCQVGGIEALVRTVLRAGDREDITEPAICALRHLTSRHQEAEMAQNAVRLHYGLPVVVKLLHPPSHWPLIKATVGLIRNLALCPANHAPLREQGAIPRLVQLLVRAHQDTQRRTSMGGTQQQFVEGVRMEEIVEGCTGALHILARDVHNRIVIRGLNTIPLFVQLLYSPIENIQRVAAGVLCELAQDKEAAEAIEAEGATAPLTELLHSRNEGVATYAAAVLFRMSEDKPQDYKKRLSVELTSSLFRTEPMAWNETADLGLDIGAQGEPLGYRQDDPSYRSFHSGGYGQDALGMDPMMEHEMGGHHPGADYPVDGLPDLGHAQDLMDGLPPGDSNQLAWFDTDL
Experimental: as §2
as §3, with “pennicillin/streptomycin.” for “pennicillin/streptomycin. LNCaP-abl, and LNCaP-95 cell lines were generous gifts from Z. Culig (Innsbruck Medical University, Austria) and J. Isaacs (Johns Hopkins University, Baltimore, MD), respectively. Cell lines were authenticated by STR profiling (Genetica Cell Line Testing; Burlington, NC).”

[4] = 10 µM compound, relative to vehicle

COc1ccc([C@H](C)N2CC(=O)N[C@H](C)C(=O)N(CCc3ccccc3Oc3ccccc3)CC(=O)N(c3cc(OC)cc(OC)c3)CC(=O)N(CCCOC(C)C)CC(=O)N([C@@H](C)c3ccc(OC)cc3)CC2=O)cc1 [Compound 13] (cyclo([dA][N(2-(2-PhOPh)Et)Gly][Gly(N-3,5-(OMe)2-Ph)][N((CH2)3OiPr)Gly][X1][X1]))
Wnt inhibitory activity (TOP-Flash luciferase) [1, 4]: more effective | IC50 ([1]; TOP-Flash LNCaP-abl cells, siAPC knockdown, 24 h compound, ± SD of three replicates, read-out: IC50 for Wnt luciferase inhibition): 105 nM | Inhibition of AR signaling (3xARE luciferase) [2, 4]: more effective | IC50 ([2]; 3xARE LNCaP-abl cells, 48 h compound, androgen-activated, read-out: IC50 for inhibition of the AR luciferase reporter): 1020 nM | β-catenin:TCF association (co-immunoprecipitated β-catenin) [3]: decreased
